Experimental data: publication PMC11122421 (Marine Drugs, 2024)
Where a SMILES comes first, the peptide text is derived from it. Bridges are numbered along the chain shown (N, C = ends).

Tests used:
[1] = target: T1, rat α6/α3β4 nAChRs (Rattus norvegicus, UniProt P04757+P12392+P43143); format: cell-based
T1 construct: expressed in transfected cells; host or cells: Xenopus laevis oocytes injected with cRNA; plasmids from J. Michael McIntosh (University of Utah)

[2] = target: T2, rat α3β2 nAChR (Rattus norvegicus, UniProt P04757+P12390); test: cell-based
T2 construct: expressed in transfected cells; host or cells: Xenopus laevis oocytes injected with cRNA; plasmids from J. Michael McIntosh (University of Utah)
T2 sequence (P04757 26-499 limits assumed): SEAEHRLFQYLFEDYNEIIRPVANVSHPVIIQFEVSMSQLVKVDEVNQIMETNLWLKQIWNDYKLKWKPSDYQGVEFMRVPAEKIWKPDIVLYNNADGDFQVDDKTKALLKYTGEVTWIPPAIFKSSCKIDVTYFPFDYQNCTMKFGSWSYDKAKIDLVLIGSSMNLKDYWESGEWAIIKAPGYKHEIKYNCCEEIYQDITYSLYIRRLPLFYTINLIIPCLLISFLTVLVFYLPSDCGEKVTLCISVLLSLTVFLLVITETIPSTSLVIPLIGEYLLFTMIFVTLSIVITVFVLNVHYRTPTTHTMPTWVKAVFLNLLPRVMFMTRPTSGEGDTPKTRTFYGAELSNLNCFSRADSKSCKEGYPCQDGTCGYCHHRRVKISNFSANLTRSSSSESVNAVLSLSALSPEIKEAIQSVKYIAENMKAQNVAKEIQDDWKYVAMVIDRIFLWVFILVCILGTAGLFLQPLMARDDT
T2 sequence (P12390 25-500 limits assumed): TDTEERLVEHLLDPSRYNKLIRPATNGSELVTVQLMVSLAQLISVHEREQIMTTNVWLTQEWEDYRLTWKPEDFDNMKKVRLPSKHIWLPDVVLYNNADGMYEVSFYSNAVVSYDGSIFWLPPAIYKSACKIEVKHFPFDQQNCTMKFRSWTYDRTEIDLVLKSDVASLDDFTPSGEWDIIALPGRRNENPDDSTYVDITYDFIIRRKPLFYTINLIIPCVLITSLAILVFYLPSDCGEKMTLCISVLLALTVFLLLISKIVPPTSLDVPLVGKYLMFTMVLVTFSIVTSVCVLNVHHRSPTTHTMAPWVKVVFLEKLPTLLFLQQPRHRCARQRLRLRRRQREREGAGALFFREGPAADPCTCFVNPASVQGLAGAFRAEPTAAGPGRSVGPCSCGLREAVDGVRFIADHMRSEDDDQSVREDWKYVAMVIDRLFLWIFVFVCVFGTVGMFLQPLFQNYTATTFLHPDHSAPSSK

[3] = target: T3, rat α7 nAChRs (Rattus norvegicus, UniProt Q05941); test: cell-based; format: cell-based
T3 construct: expressed in transfected cells; host or cells: Xenopus laevis oocytes injected with cRNA; plasmids from J. Michael McIntosh (University of Utah)
T3 sequence (Q05941 23-502): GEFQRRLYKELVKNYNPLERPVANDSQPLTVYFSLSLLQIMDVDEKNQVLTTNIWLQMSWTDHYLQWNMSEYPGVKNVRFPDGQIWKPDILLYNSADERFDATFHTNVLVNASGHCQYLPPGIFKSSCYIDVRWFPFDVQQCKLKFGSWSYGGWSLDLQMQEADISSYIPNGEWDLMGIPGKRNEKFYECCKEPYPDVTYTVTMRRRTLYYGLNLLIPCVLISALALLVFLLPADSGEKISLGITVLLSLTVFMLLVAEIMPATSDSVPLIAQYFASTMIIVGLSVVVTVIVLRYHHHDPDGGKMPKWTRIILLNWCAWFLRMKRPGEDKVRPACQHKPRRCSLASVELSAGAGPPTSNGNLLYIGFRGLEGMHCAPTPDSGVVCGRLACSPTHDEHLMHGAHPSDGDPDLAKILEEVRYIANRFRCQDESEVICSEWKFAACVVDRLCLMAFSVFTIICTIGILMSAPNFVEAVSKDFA

T1 sequence (P43143+P04757 fused with the stated changes): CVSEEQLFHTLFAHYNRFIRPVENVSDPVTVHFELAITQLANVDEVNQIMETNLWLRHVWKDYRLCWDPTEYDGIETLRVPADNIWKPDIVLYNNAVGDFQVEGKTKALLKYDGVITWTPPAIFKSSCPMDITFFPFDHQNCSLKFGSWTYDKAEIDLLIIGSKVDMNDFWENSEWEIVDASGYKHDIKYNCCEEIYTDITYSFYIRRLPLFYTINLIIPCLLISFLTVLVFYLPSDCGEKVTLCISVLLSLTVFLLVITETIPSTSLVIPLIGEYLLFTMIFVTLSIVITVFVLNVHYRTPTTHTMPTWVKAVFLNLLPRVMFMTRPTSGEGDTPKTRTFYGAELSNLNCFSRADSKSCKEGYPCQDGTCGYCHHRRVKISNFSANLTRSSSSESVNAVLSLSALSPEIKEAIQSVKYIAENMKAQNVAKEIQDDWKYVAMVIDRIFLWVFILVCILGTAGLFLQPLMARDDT
T1 sequence (P12392 21-495): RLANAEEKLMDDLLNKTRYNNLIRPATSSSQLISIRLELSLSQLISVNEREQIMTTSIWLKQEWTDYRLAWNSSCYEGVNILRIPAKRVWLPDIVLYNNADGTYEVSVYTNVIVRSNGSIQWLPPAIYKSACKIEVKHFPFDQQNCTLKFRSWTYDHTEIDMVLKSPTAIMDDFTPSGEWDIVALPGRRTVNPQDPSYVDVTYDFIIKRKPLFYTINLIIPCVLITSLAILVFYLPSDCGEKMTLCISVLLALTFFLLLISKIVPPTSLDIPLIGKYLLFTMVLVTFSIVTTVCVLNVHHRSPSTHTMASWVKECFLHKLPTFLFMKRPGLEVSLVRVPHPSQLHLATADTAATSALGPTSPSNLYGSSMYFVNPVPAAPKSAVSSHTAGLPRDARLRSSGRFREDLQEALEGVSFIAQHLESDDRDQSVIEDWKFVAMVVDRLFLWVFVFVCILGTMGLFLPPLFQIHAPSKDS

C[C@@H]1NC(=O)[C@@H]2CSSC[C@H](NC(=O)CN)C(=O)N[C@@H](CSSC[C@@H](C(N)=O)NC(=O)[C@H](Cc3c[nH]cn3)NC(=O)[C@H](CCC(=O)O)NC(=O)[C@H](Cc3c[nH]cn3)NC1=O)C(=O)N[C@@H](CO)C(=O)N[C@@H](CC(N)=O)C(=O)N1CCC[C@H]1C(=O)N1CCC[C@H]1C(=O)N2 [[Q1G, ΔR14]LvIB] (H-GCCSNPPCAHEHC-NH2; disulfide 2-8, 3-13)
inhibition rate [1]: 88 ± 5% | inhibition rate [2]: 97 ± 2% | Hill Slope [3]: 0.99 (0.8–1.19) | inhibition rate of ACh-evoked current [3]: 98 ± 0.12% | time to ~90% current restoration after block (recovery/washout) [3]: ≤ 17 min
